Counter-ions that a name gives are not always drawn. Like-named read-outs stand apart in the source and are kept apart here.
Columns and labels:
[1] = tested on: lymphocytic leukemia P388; assay: in vivo lymphocytic leukemia P388 test; parameters: species or system CD2 F1 mice; conditions: Mus musculus, P388, ip, 120 h
Description: Another test protocol is the in vivo lymphocytic leukemia P388 test. The animals used are either male or female CD2 F1 mice, six or seven animals per test group. The tumor transplant is by intraperitoneal injection of dilute ascitic fluid containing cells of lymphocytic leukemia P388. The test compounds are administered intraperitoneally once daily for five consecutive days at various doses following tumor inoculation. The animals are weighed and survivors are recorded on a regular basis for 30 days. A compound is designated "toxic" if, at a given dose, all animals died prior to four days after the first injection of drug. A ratio of survival time for treated (T)/control (C) animals is calculated. A criterion for efficacy is a ratio T/C times 100 greater than or equal to 125. See Cancer Chemotherapy Reports, Part 3, 3, 1 (1972) for a comprehensive discussion of the protocol.

HCT-8 cells = assay: in vitro proliferating human colon adenocarcinoma (HCA) cell screen, HCT-8; format: cell-based
Description: (a) One test protocol is the in vitro proliferating human colon adenocarcinoma (HCA) cell screen. In this test, HCT-8 cells (HCA cell line received from Yale University) are trypsinized using trypsin-EDTA. A single cell suspension is achieved by passing the cells through a 26 gauge needle with a 20-cc syringe. A cell suspension is prepared using RPMI 1640+10% FCS+50 μg/ml gentamicin sulfate with a cell concentration is approximately 30,000 cells/ml. The cell suspension is dispensed in Linbro 24-well plates; 1 ml/well. The plates are incubated for approximately 48 hours at 37° C. in a 5% CO2 atmosphere. At this time test compounds are added in the appropriate concentration. Five μl of the 200 μg/ml stock solution is added to each well in a primary test. […] of the appropriate dilution is added to each well for a titration test. The plates are reincubated an additional 60 to 65 hours at 37° C. in a 5% CO 2 atmosphere. The cells are lysed using a mix of cationic surfactant, glacial acetic acid, and sodium chloride. Two ml of the lysed cell suspension from each well is added to 8 ml of diluent. The number of nuclei is determined using a Coulter counter (ZBI model), and a percent growth for each drug concentration is calculated. From this, and ID50 (molar concentration of compound that results in 50% inhibition of growth) is determined.

Streptococcus pneumoniae = assay: in vitro antibacterial (ABMF) microdilution susceptibility test; format: cell-based; conditions: read-out: ABMF Test M.I.C. S. pneu.
From the text: (§1) (d) Still another test protocol is the in vitro antibacterial (ABMF) test which is a recognized standard microdilution susceptibility procedure in Mueller-Hinton broth against gram-positive and gram-negative bacterial test organisms. The procedure is a modification of a state-of-the-art procedure reported in Manual of Clinical Microbiology, Lennette, E. H., ed., by Barry, A. L. and C. Thornsberry at pages 463-474 and by Gavan, T. L. and A. L. Barry at pages 459-462, American Society for Microbiology, Washington, 1980.
(§2) In the test, a given bacterial culture is used to inoculate individaul test wells of microdilution trays containing growth medium and test compound, the latter in a microdilution series: 1000, 333, 111, 37, 12, 4, 1.4, and 0.46 micrograms per milliliter. […] For convenience, values are reported for Escherichia coli, Branhamella catarrhalis, Alcaligenes viscolactis, Streptococcus pneumoniae, and Bacillus cereus

Alcaligenes viscolactis = assay: as above; format: cell-based; conditions: read-out: ABMF Test M.I.C. A. visc.
From the text: as §1, §2

Branhamella catarrhalis = assay: as above; format: cell-based; conditions: Moraxella catarrhalis, read-out: ABMF Test M.I.C. B. cata.
From the text: as §1, §2

Bacillus cereus = assay: as above; format: cell-based; conditions: read-out: ABMF Test M.I.C. B. cere.
From the text: as §1, §2

Escherichia coli = assay: as above; format: cell-based; conditions: read-out: ABMF Test M.I.C. E. coli
From the text: as §1, §2

[2] = intraperitoneally once daily for five days, read-out: P388 in vivo T/C × 100
[3] = Mueller-Hinton broth, 37° C., 16-24 hours
[4] = HCT-8 cells, 60 to 65 hours, ED50, read-out: HCA ED50 Avg.
[5] = 6.25 mg/kg, intraperitoneally once daily for five days, read-out: P388 in vivo T/C × 100
[6] = 3.12 mg/kg, intraperitoneally once daily for five days, read-out: P388 in vivo T/C × 100
[7] = 1.56 mg/kg, intraperitoneally once daily for five days, read-out: P388 in vivo T/C × 100

Row | SMILES | response vs control in vivo at 12.5 mg/kg [1, 2] [%] | MIC (Streptococcus pneumoniae; [3]) [µg/mL] | MIC (Alcaligenes viscolactis; [3]) [µg/mL] | MIC (Branhamella catarrhalis; [3]) [µg/mL] | MIC (Bacillus cereus; [3]) [µg/mL] | MIC (Escherichia coli; [3]) [µg/mL] | IC50 (HCT-8 cells; [4]) [nM] | response vs control in vivo at 6.25 mg/kg [1, 5] [%] | also measured
1 | CCN(CC)CCn1nc2c3c(c([N+](=O)[O-])ccc31)Nc1ccc(OCc3ccccc3)cc1-2 [Example 11, monomethanesulfonate] | 127 | – | – | – | – | – | – | – | response vs control in vivo at 25 mg/kg ([1]; 25 mg/kg, intraperitoneally once daily for five days, read-out: P388 in vivo T/C × 100): 141%; response vs control in vivo at 50 mg/kg ([1]; 50 mg/kg, intraperitoneally once daily for five days, read-out: P388 in vivo T/C × 100): 194%; IC50 (HCT-8 cells; HCT-8 cells, 60 to 65 hours, molar concentration for 50% inhibition of growth, read-out: HCA in vitro ID50 avg.): 2300 nM
2 | CCN(CC)CCn1nc2c3c(c([N+](=O)[O-])ccc31)Nc1c(OC)cccc1-2.CS(=O)(=O)O [Example 17, N,N-Diethyl-7-methoxy-5-nitropyrazolo[3,4,5-kl]acridine-2(6H)-ethanamine, methanesulfonate (1:1)] | 106 | < 0.46 | < 0.46 | < 0.46 | < 0.46 | < 0.46 | 510 | – | –
3 | CCOc1ccc2c(c1)-c1nn(CCN(CC)CC)c3ccc([N+](=O)[O-])c(c13)N2.CS(=O)(=O)O [Example 18, N,N-Diethyl-9-ethoxy-5-nitropyrazolo[3,4,5-kl]acridine-2(6H)-ethanamine, methanesulfonate (1:1)] | 201 | < 0.46 | < 0.46 | 1.4 | 12.3 | 12.3 | 110 | 169 | response vs control in vivo at 3.13 mg/kg ([1]; 3.13 mg/kg, intraperitoneally once daily for five days, read-out: P388 in vivo T/C × 100): 135%
4 | CCCOc1ccc2c(c1)-c1nn(CCN(CC)CC)c3ccc([N+](=O)[O-])c(c13)N2.CS(=O)(=O)O [Example 19, N,N-Diethyl-5-nitro-9-propoxypyrazolo[3,4,5-kl]acridine-2(6H)-ethanamine, methanesulfonate salt (1:1)] | – | < 0.46 | < 0.46 | < 0.46 | 12.3 | 1000 | 310 | 167 | response vs control in vivo at 3.12 mg/kg [1, 6]: 137%
5 | CCCCOc1ccc2c(c1)-c1nn(CCN(CC)CC)c3ccc([N+](=O)[O-])c(c13)N2 [Example 20, 9-Butoxy-N,N-diethyl-5-nitropyrazolo[3,4,5-kl]acridine-2(6H)-ethanamine, methanesulfonate] | – | – | – | – | – | – | 73 | 160 | response vs control in vivo at 1.56 mg/kg [1, 7]: 124%; response vs control in vivo at 3.12 mg/kg [1, 6]: 125%
6 | CCN(CC)CCn1nc2c3c(c([N+](=O)[O-])ccc31)Nc1c(OC)cc(OC)cc1-2 [Example 23, N,N-Diethyl-7,9-dimethoxy-5-nitropyrazolo[3,4,5-kl]acridine-2(6H)-ethanamine, methanesulfonate, hydrate (1:1)] | – | < 0.46 | < 0.46 | 1.4 | < 0.46 | 37 | 490 | – | –
7 | CCN(CC)CCn1nc2c3c(c([N+](=O)[O-])ccc31)Nc1ccc(O[Si](C)(C)C(C)(C)C)cc1-2 [Example 26, 9-[[(1,1-Dimethylethyl)dimethylsilyl]oxy]-N,N-diethyl-5-nitropyrazolo[3,4,5-kl]acridine-2(6H)-ethanamine, methanesulfonate (salt) (1:1)] | – | – | – | – | – | – | – | – | MIC (Streptococcus pneumoniae): > 1000 µg/mL; MIC (Alcaligenes viscolactis): 37 µg/mL; MIC (Branhamella catarrhalis): > 1000 µg/mL; MIC (Bacillus cereus): > 1000 µg/mL; MIC (Escherichia coli): > 1000 µg/mL; response vs control in vivo at 1.56 mg/kg ([1]; read-out: P388 in vivo T/C × 100, 1.56 mg/kg, intraperitoneally once daily for five days): 154%; response vs control in vivo at 3.12 mg/kg ([1]; read-out: P388 in vivo T/C × 100, 3.12 mg/kg, intraperitoneally once daily for five days): 158%; response vs control in vivo at 6.25 mg/kg ([1]; read-out: P388 in vivo T/C × 100, 6.25 mg/kg, intraperitoneally once daily for five days): 211%; IC50 (HCT-8 cells; HCT-8, read-out: HCA ED50 Avg.): 6.4 nM
8 | CCN(CC)CCn1nc2c3c(c([N+](=O)[O-])ccc31)Nc1ccc(OC(C)=O)cc1-2 [Example 27, 2-[2-(Diethylamino)ethyl]-2,6-dihydro-5-nitropyrazolo[3,4,5-kl]acridin-9-ol, acetate (ester), methanesulfonate (salt) (1:1)] | – | 1.4 | 0.46 | 0.46 | 4.1 | 12.3 | 5.3 | 165 | response vs control in vivo at 1.56 mg/kg [1, 7]: 158%; response vs control in vivo at 3.12 mg/kg [1, 6]: 218%
9 | CCCC(=O)Oc1ccc2c(c1)-c1nn(CCN(CC)CC)c3ccc([N+](=O)[O-])c(c13)N2 [Example 29, [2-[2-(Diethylamino)ethyl]-2,6-dihydro-5-nitropyrazolo[3,4,5-kl]acridin-9-yl]butanoic ester, methanesulfonate (salt) (1:1)] | – | < 0.46 | < 0.46 | 1.4 | 4.1 | 333 | – | 252 | –
10 | CCN(CC)CCn1nc2c3c(c([N+](=O)[O-])ccc31)Nc1ccc(C)cc1-2 [Example 34, N,N-Diethyl-9-methyl-5-nitropyrazolo[3,4,5-kl]acridine-2(6H)-ethanamine, methanesulfonate (salt) (1:1)] | – | < 0.46 | < 0.46 | < 0.46 | < 0.46 | 12.3 | 790 | – | –
11 | CC[N+]([O-])(CC)CCn1nc2c3c(c([N+](=O)[O-])ccc31)Nc1ccccc1-2 [Example 35, N,N-Diethyl-5-nitropyrazolo[3,4,5-kl]acridine-2(6H)-ethanamine, N-oxide, methanesulfonate salt (5:6), hydrate (4:3)] | 167 | 12.3 | 4.1 | 12.3 | > 1000 | 12.3 | – | – | –
12 | CCN(CC)CCn1nc2c([N+](=O)[O-])cc([N+](=O)[O-])c3c2c1-c1cc(OC)ccc1N3.CS(=O)(=O)O [Example 56, N,N-Diethyl-9-methoxy-3,5-dinitropyrazolo[3,4,5-kl]acridine-1(6H)-ethanamine, methanesulfonate] | – | – | – | – | – | – | – | – | MIC (Streptococcus pneumoniae): 12.3 µg/mL; MIC (Alcaligenes viscolactis): < 0.46 µg/mL; MIC (Branhamella catarrhalis): 37 µg/mL; MIC (Bacillus cereus): 333 µg/mL; MIC (Escherichia coli): 1000 µg/mL
